Test results reported in PubChem BioAssay (NCI).
“And” between values parts separate entries of the source, which are not always exact repeats. Equal values may be shown once.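 Tested at 5 concentrations; 48 h exposure; 96-well plates; endpoints linearly interpolated, else capped at highest concentration. GI50: concentration for 50% inhibition of growth. Definition used: TGI = concentration required for complete inhibition of growth.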

Legend:
Assay in all cases: NCI anticancer screen, dose series, 48 h
[1] = tested on: MDA-MB-435
[2] = tested on: OVCAR-3 ovarian
[3] = tested on: MOLT-4 leukemia
[4] = tested on: HCT-15 colon
[5] = tested on: NCI-H23 lung
[6] = tested on: OVCAR-4 ovarian
[7] = tested on: CAKI-1 renal
[8] = tested on: NCI-H522 lung
[9] = tested on: DMS 273 small cell lung
[10] = tested on: M19-MEL melanoma
[11] = tested on: SNB-78 CNS
[12] = tested on: DMS 114 small cell lung

Row | Structure (SMILES) | GI50 [1] [µM] | TGI [1] [µM] | GI50 [2] [µM] | TGI [2] | GI50 [3] [µM] | TGI [3] | GI50 [4] [µM] | TGI [4] | GI50 [5] [µM] | TGI [5] [µM] | GI50 [6] [µM] | TGI [6] [µM] | GI50 [7] [µM] | TGI [7] | GI50 [8] [µM] | TGI [8] | TGI [9] [µM] | TGI [10] [µM] | TGI [11] [µM] | TGI [12] [µM]
1 | O=C(CN(/C=C/C(=O)C(F)(F)F)c1ccccc1)c1ccc(Cl)c(Cl)c1 | 14.9 | 31.9 | 14.1 | 30 µM | 12.7 | 32.4 µM | 14.6 | 28.2 µM | 13.6 | 26.7 | 20.3 | 45.6 | 8.44 | 23.4 µM | 11.1 | 25 µM | – | – | – | –
2 | O=C(CCCSc1nc(-c2ccccc2)cc(-c2ccc(Cl)cc2)n1)NO | 3.11 | 14.8 | 0.675 | 9.38 µM | 1.51 | 10.6 µM | 0.382 | 13.5 µM | 2.44 | 10.6 | 1.12 | 14.4 | 0.355 | 9.36 µM | 1.96 | 10.4 µM | – | – | – | –
3 | O=C(c1cccnc1)c1cc(-c2ccccn2)c(=O)n2ccccc12 | > 100 | > 100 | > 100 | > 100 µM | > 100 | > 100 µM | > 100 | > 100 µM | > 100 | > 100 | > 100 | > 100 | > 100 | > 100 µM | > 100 | > 100 µM | – | – | – | –
4 | N=C(N)c1ccc(COc2ccccc2OCc2ccc(C(=N)N)cc2)cc1 | 30.2 | > 100 | 16.4 | 53.5 µM | 49.6 | > 100 µM | 75.6 | > 100 µM | 49.4 | > 100 | 92 | > 100 | 2.11 | 29.8 µM | 99.5 | > 100 µM | – | – | – | –
5 | COCCNc1cc(NC(=O)N2CCCc3cc(CN4CCN(C)CC4=O)c(C=O)nc32)ncc1C#N | > 50 | > 50 | > 50 | > 50 µM | > 50 | > 50 µM | 33.1 | > 50 µM | > 50 | > 50 | > 50 | > 50 | > 50 | > 50 µM | > 50 | > 50 µM | – | – | – | –
6 | c1ccc(CSc2nnc3c4ccccc4c4ccccc4c3n2)cc1 | – | > 100 | – | > 70.9 µM | – | > 100 µM | – | > 100 µM | – | > 100 | – | > 96.3 | – | > 100 µM | – | 97.9 µM | – | – | – | –
7 | CN(C)CC1CCCCCC(CN(C)C)C1=O (stereo not given) | 2.93 | 13.2 | 1.48 | 5.05 µM | 2 | 5.51 µM | 1.24 | 4.26 µM | 8.94 | 27 | 3.4 | 21.7 | 1.49 | 3.12 µM | 0.145 | 0.392 µM | – | – | – | –
8 | O=C(COc1cccc(/C=C2\COc3ccc(Cl)cc3C2=O)c1)c1ccc(Cl)cc1 | 5.91 | 18.6 | 7.71 | 19.8 µM | 5.95 | 24.3 µM | 12.2 | 24.7 µM | 13.4 | 26.4 | 14.9 | 31.5 | 12.1 | 24.5 µM | 11.7 | 27.2 µM | – | – | – | –
9 | COc1cc2c3c(n(C)c(=O)c2cc1OC)-c1cc2c(cc1/C3=C\C(N)CN)OCO2 (stereo not given) | 2.56 | 17.3 | 1.92 | 6.88 µM | 0.125 | > 40.7 µM | 2.16 | 16.6 µM | 1.84 | 5.58 | 5.44 | > 100 | 2.27 | 10.4 µM | 0.394 | – | – | – | – | –
10 | S=C(Nc1cc(Cl)c(Cl)cc1Cl)SCc1ccccc1 | – | 38.6 | – | 49.3 µM | – | 76.4 µM | – | 32.6 µM | – | 45.3 | – | 65.3 | – | 44 µM | – | 59.5 µM | – | – | – | –
11 | C/C=C/C=C/CCCCCCCCCCCCCC1(OC)C=CC(CC(=O)OC)OO1 (stereo not given) | – | – | 6.7 | 20.6 µM | 7.97 | 33.8 µM | 3.08 | 11.2 µM | 4.3 | 14 | 1.15 | 2.48 | 1.6 | 3.44 µM | 1.58 | 3.09 µM | 3.03 | 24.1 | – | –
12 | CSC1(SC2=NCCN2)SC2(NCCN2)S1 | – | 31.3 | – | 30.6 µM | – | 52.9 µM | – | 41.2 µM | – | 33.4 | – | 44.6 | – | 27 µM | – | 27.1 µM | – | – | – | –
13 | CN(C)c1ccc(C(=C2C=CC(=[N+](C)C)C=C2)c2ccc(N(C)C)cc2)cc1 | 0.152 | 0.431 | – | – | 0.297 | 2.41 µM and 0.543 µM | – | 1.35 µM and 1.26 µM | – | 0.37 | – | 1.05 | 0.249 | 0.788 µM and 2.43 µM | – | – | 1.15 | 1.41 | 5.67 | –
14 | N#Cc1cc([N+](=O)[O-])ccc1NC(=O)/C(=N/N)C(C(=O)c1ccc(Cl)c(Cl)c1)C1OC(=O)c2ccccc21 (stereo not given) | – | – | – | > 100 µM | – | > 100 µM | – | > 100 µM | – | > 100 | – | > 100 | – | > 100 µM | – | > 100 µM | – | > 100 | > 100 | > 100
15 | CS(=O)(=O)Nc1ccc(N=Cc2c(O)[nH]c3ccccc23)cc1 | > 25 | > 25 | > 25 | > 25 µM | > 25 | > 25 µM | > 25 | > 25 µM | > 25 | > 25 | > 25 | > 25 | > 13.9 | > 25 µM | > 25 | > 25 µM | – | – | – | –
16 | O=C1CCC2(c3ccccc3)Nc3ncccc3N12 (stereo not given) | – | – | – | > 100 µM | – | > 100 µM | – | > 100 µM | – | > 100 | – | > 100 | – | > 100 µM | – | > 100 µM | – | > 100 | > 100 | > 100
17 | Nc1nc(N)c(N=O)c(OCC2CCCCC2)n1 | 12.8 | > 85.3 | 7.37 | 64.7 µM and 61.5 µM | 7.65 | > 100 µM and 51 µM | – | > 100 µM | 9.71 | > 100 | 6.03 | > 75.5 | 3.99 | 34 µM and 78.9 µM | 10 | > 73.3 µM and 50.7 µM | – | – | – | –
